# Assay results as given in patent US20240374550A1, “GINGERENONE A PRODRUGS AND METHODS OF USE” (The U.S.A., as Represented by the Secretary, Department of …, priority 2022, published 2024).
# “Also recorded” adds a separate entry of the source.
# Experiments:
# [1] = test system: senescent WI-38 fibroblasts; assay: MTT cell viability assay, IR-induced senescent WI-38 fibroblasts; format: cell-based, human; details: for senolytic activity (ability to selectively decrease cell viability of senescent cells): 72 h, ginger components at 100 μM, 6-shogaol 3.6 μM, 8-shogaol 33 μM, 6-gingerol 20 μM; for senescent cell viability: D+Q (dasatinib 250 nM + quercetin 10 μM), gingerenone A 20 μM, 6-shogaol 72.4 nM
# Protocol: Cell culture and treatments: WI-38 human diploid fibroblasts (HDFs) were cultured in Dulbecco's modified Eagle's medium (DMEM) supplemented with 10% heat-inactivated fetal bovine serum (FBS), penicillin and streptomycin, and non-essential amino acids at 37° C. in a 5% CO2 incubator. HDFs were rendered senescent by exposure to 10 Gy of ionizing radiation (IR) and then cultured for an additional ten days. Proliferating and senescent WI-38 cells were seeded in triplicate overnight at 2×10^5 cells/well (in 6 well plates) to achieve ˜60% confluence by the next day. Cells were then treated with the extracts for times indicated. […]
# MTT cell viability: The MTT assay (Bio Vision Milpitas, CA) was carried out following the manufacturer's protocol. Briefly, the media was gently removed from each well and 50 μl of serum-free medium+50 μl of Solution A were added to each well. The plates were incubated at 37° C. for MTT reduction into formazan for 3 h. Next, 150 μl Solution B was added to each well and the plate was covered with foil and shaken at 600 rpm for 15 min. The absorbance was measured at 590 nm using Enspire, Perkin Elmer Multimode plate reader. […]
# WI-38 fibroblasts were rendered senescent by exposure to ionizing radiation (IR, 10 Gy) and cultured for an additional 10 days. […] Data represent the means and standard error from three biological replicates. The major components of ginger extract, namely 6-gingerol, 8-gingerol, 10-gingerol, 6-shogaol, 8-shogaol, gingerenone A, and zingerone, were screened for their ability to selectively decrease cell viability of senescent cells using the MTT assay (FIG. 10A).
# [2] = test system: proliferating WI-38 fibroblasts; assay: MTT cell viability assay, proliferating WI-38 fibroblasts; format: cell-based, human; details: 48 h; D+Q (dasatinib 250 nM + quercetin 10 μM), gingerenone A 20 μM, 6-shogaol 72.4 nM
# Protocol: Cell culture and treatments: WI-38 human diploid fibroblasts (HDFs) were cultured in Dulbecco's modified Eagle's medium (DMEM) supplemented with 10% heat-inactivated fetal bovine serum (FBS), penicillin and streptomycin, and non-essential amino acids at 37° C. in a 5% CO2 incubator. HDFs were rendered senescent by exposure to 10 Gy of ionizing radiation (IR) and then cultured for an additional ten days. Proliferating and senescent WI-38 cells were seeded in triplicate overnight at 2×10^5 cells/well (in 6 well plates) to achieve ˜60% confluence by the next day. Cells were then treated with the extracts for times indicated.
# In 24-well plates, cells were treated with multiple dilutions (1:200 and 1:500) of Harpagophytum procumbens (Devil's Claw) (herb to menstruum ratio, 1:3), Uncaria tomentosa (Cat's Claw) (herb to menstruum ratio, 1:3), Zingiber officinale Rosc. […]
# MTT cell viability: The MTT assay (Bio Vision Milpitas, CA) was carried out following the manufacturer's protocol. […] The absorbance was measured at 590 nm using Enspire, Perkin Elmer Multimode plate reader.
# Four plant extracts were screened for senolytic activity, including extracts from Harpagophytum procumbens (Devil's Claw), Uncaria tomentosa (Cat's Claw), Zingiber officinale Rosc. […] In FIG. 8B, the impact on ginger extract on proliferating and senescent cells on cell survival was assessed by the MTT cell viability assay. […]
# [3] = test system: p53, Bcl-XL, cleaved caspase-3 in proliferating and senescent WI-38 fibroblasts; assay: Western blot protein analysis (p53, Bcl-XL, cleaved caspase-3); format: cell-based, human; details: 48 h, senescent cells
# Protocol: Protein analysis: Cells were lysed in RIPA lysis buffer (Pierce, ThermoFisher) containing protease and phosphatase inhibitors (Roche) and incubated on ice for 10 min. The lysates were then sonicated for 5 min and centrifuged for 10 min at 4° C. to remove the insoluble fraction. The remaining supernatant was the whole-cell lysate. Lysates were separated by SDS-polyacrylamide gel electrophoresis (SDS-PAGE) and transferred onto nitrocellulose membranes (Biorad). Incubations with primary antibodies recognizing p21, p53, Beta-Actin (ACTB) (Santa Cruz Biotechnology), as well as caspase-3 (Abcam) and Bcl-XL (Cell Signaling) were followed by incubations with the appropriate secondary antibodies conjugated with horseradish peroxidase (GE Healthcare). Signals were developed using Enhanced Chemiluminescence (ECL) and acquired by using the ChemiDoc MP Imaging System (BioRad).
# The effects of gingerenone A, 6-shogaol and D+Q on cytokines and chemokines that are known to be part of the senescence-associated secretory phenotype (SASP) were tested. WI-38 fibroblasts were rendered senescent by exposure to ionizing radiation (IR, 10 Gy) and cultured for an additional 10 days. Cells were then treated with gingerenone A (20 μM) and 6-shogaol (72.4 nM) and incubated for 24 h. CCL-2 (MCP-1) and IL-10 were measured using the Bio-plex (Multiplex); IL6 was measured using Quantikine IL-6 (R&D) (FIG. 12A). Data were normalized to cell number/total protein content. Data in graphs represent the means and standard error from three biological replicates. […] Ratios of cleaved pro-caspase 3 to total caspase 3, normalized to ACTB levels, are shown as relative to control proliferating cells. Cytokines (FIG. 13A) and chemokines (FIG. 13B) were measured using the V-plex panel (MSD) after treatment for 24 h with the indicated drugs. Relative secretion was measured as pg/ml vs control normalized on TE. Data in the graphs represent the means and standard error from three biological replicates.
# To determine whether gingerenone A and 6-shogaol might influence the apoptotic pathway, their effect on the levels of cleaved caspase-3 (pro-apoptotic marker), and Bcl-XL (anti-apoptotic protein) (FIG. 12B) was tested.
# [4] = test system: SASP cytokines and chemokines secreted by senescent WI-38 fibroblasts; assay: Secreted protein analysis (ELISA, Luminex multiplex, V-PLEX) of SASP factors; format: cell-based, human; details: 24 h
# Protocol: Secreted protein analysis-ELISA, Luminex Multiplex and V-PLEX: Media was collected at the earliest timepoint (24 h after treatments) to avoid cell death that could interfere with the assay. The media was centrifuged at 1000×g for 5 min to remove debris. The secretion of IL-6 was measured by the Quantikine ELISA Kit (R&D systems) and the expression of pro-inflammatory cytokines and chemokines [IL-6, TNFα, CCL2 (MCP-1), IL-8, IFNß] was also assessed by multiplex assays (customized Luminex plate, R&D) according to the manufacturer's instructions. The V-PLEX Plus Proinflammatory Panel 1 Human Kit and the Chemokine Panel 1 preparation and detection were carried out following the manufacturer's protocol (Mesoscale Diagnostics) using >80% confluency of proliferating or senescent cells on 24-well plates. Briefly, different concentrations of standards and samples were added to the plates, and they were incubated for 2 h on a microplate shaker. The plates were washed, and the corresponding detection antibody mixture was added to each well and incubated for 1 h with shaking. The plates were washed twice then Read buffer was added to each well. The plates were read on the MESO Quickplex SQ 120 (MSD, Rockville, MD) and protein concentrations were determined using MSD Discovery workbench 4.0. The effects of gingerenone A, 6-shogaol and D+Q on cytokines and chemokines that are known to be part of the senescence-associated secretory phenotype (SASP) were tested. WI-38 fibroblasts were rendered senescent by exposure to ionizing radiation (IR, 10 Gy) and cultured for an additional 10 days. Cells were then treated with gingerenone A (20 μM) and 6-shogaol (72.4 nM) and incubated for 24 h. CCL-2 (MCP-1) and IL-10 were measured using the Bio-plex (Multiplex); IL6 was measured using Quantikine IL-6 (R&D) (FIG. 12A). Data were normalized to cell number/total protein content. Data in graphs represent the means and standard error from three biological replicates. […] Ratios of cleaved pro-caspase 3 to total caspase 3, normalized to ACTB levels, are shown as relative to control proliferating cells. Cytokines (FIG. 13A) and chemokines (FIG. 13B) were measured using the V-plex panel (MSD) after treatment for 24 h with the indicated drugs. Relative secretion was measured as pg/ml vs control normalized on TE. Data in the graphs represent the means and standard error from three biological replicates.
# [5] = test system: circulating cytokines/chemokines in serum; assay: Chronic administration, serum cytokines/chemokines; format: in vivo, C57BL/6JN mice; details: GinA 10 mg/kg/day, modGinA 27 mg/kg/day, 10 weeks
# Protocol: (§1) A chronic administration of GinA (10 mg/kg/day; 1.8 mg/mL) and modGinA (27 mg/kg/day, 4.8 mg/mL) or vehicle (high oleic sunflower oil) was carried out daily for 10 weeks in C57BL/6JN mice (79-80 weeks old). The serum was analyzed for circulating levels of cytokines/chemokines during treatment (9th week) and 10 days after cessation of drug administration. […] FIGS. 16A and 16B show circulating levels of IL-5 in serum during treatment (9 weeks; FIG. 16A) and after treatment (FIG. 16B) with daily oral administration of 10 mg/kg of GinA or 27 mg/kg of modGinA. IL-5 was significant in post treatment using the unadjusted Kruskal-Wallace test between the three groups (vehicle, GinA and modGinA) and unadjusted unpaired t-test between either group and vehicle and during treatment using unadjusted unpaired t-test in the modGinA treatment group.
# in vivo = details: male, C57BL/6J, mouse, po, 10 mg/kg
# Protocol: Gingerenone A Quantification: The analysis of Gingerenone A, EPA and DHA was accomplished using a Phenomencx® Security Guard® C18 column (4 x3 mm ID, Phenomenex, Torrance, CA) and a Waters™ Xbridge® C18 3.5 μm column (2.1 mm×100 mm, Waters Corporation, Milford, MA). The mobile phase consisted of 5 mM ammonium formate and 0.1% formic acid as component A and acetonitrile as component B. A linear gradient was run as follows: 0 min 10% B; 1 min 10% B, 5 min 90% B; 10 min 90% B; 10.1 min 10% B at a flow rate of 0.2 mL/min, with an oven temperature at 40° C. The total run time was 15 min per sample. […] For DHA, the TIS compound parameter settings (declustering potential, collision energy and cell exit potential) for MRM was −135 V, —14 V and −13 V and for naringenin MRM was −100 V, —24 V and −10 V, and MRM2 was −100V, —33 V and −10 V. The data were acquired and analyzed using Analyst version 1.4.2 (Applied Biosystems). The relative quantitation of gingerenone A, EPA and DHA was accomplished by using the area under the curves. […] For the quantitation of gingerenone A, a seven-point calibration curve (12.5 to 0.097 ng/ml) was carried out. […]
# The peak areas in circulating gingerenone A levels were measured as described above in the Methods section.
# [6] = test system: circulating metabolites and lipid species in serum; assay: Chronic administration, serum metabolomic and lipid analysis; format: in vivo, C57BL/6J male mice; details: daily oral GinA 10 mg/kg or modGinA 27 mg/kg, at 9 weeks, compared to vehicle
# Protocol: as §1
# Additionally, modGinA administration increased circulating levels of multiple DHA- and EPA-containing lipid species, including phospholipids and cholesterol esters during treatment.
smiles,measurement,setting,value
CCCCC[C@H](O)CC(=O)CCc1ccc(O)c(OC)c1 [6-gingerol],senolytic activity (ability to selectively decrease cell viability of senescent cells),[1],only 6-shogaol and gingerenone A displayed senolytic activity
CCCCC/C=C/C(=O)CCc1ccc(O)c(OC)c1 [6-shogaol],effect on proliferating cells,[2],significant increase
same,senescent cell viability,[1]; 48 h,moderate degree of cell death
same,senolytic activity (ability to selectively decrease cell viability of senescent cells),[1],displayed senolytic activity
same,expression of anti-apoptotic protein Bcl-XL,[3],reduced
same,levels of pro-apoptotic protein cleaved caspase-3,[3],increase
same,changes in any of the cytokines and chemokines measured,[4]; 72.4 nM,did not induce major changes
CCCCCCC[C@H](O)CC(=O)CCc1ccc(O)c(OC)c1 [8-gingerol],senolytic activity (ability to selectively decrease cell viability of senescent cells),[1],only 6-shogaol and gingerenone A displayed senolytic activity
CCCCCCC/C=C/C(=O)CCc1ccc(O)c(OC)c1 [8-shogaol],senolytic activity (ability to selectively decrease cell viability of senescent cells),[1],only 6-shogaol and gingerenone A displayed senolytic activity
CCCCCCCCC[C@H](O)CC(=O)CCc1ccc(O)c(OC)c1 [10-gingerol],senolytic activity (ability to selectively decrease cell viability of senescent cells),[1],only 6-shogaol and gingerenone A displayed senolytic activity
"COc1cc(CC/C=C/C(=O)CCc2ccc(O)c(OC)c2)ccc1O [gingerenone A, Gingerenone A]",effect on proliferating cells,[2],did not show any significant effect
same,serum IL-5,"[5]; post treatment, unadjusted unpaired t-test vs vehicle",reduced
same,serum IL-2,[5]; ten days after termination,reduced
same,senescent cell viability relative to proliferating cells,"[1]; 20 μM, 48 h, p=0.04",significant decrease; also recorded: significantly decreased
same,selectivity for senescent over proliferating cells,"[1]; 48 h, 20 μM, compared to D+Q",higher selectivity
same,senescent cell viability,[1]; 48 h,significantly decreased
same,senolytic activity (ability to selectively decrease cell viability of senescent cells),[1],displayed senolytic activity
same,expression of anti-apoptotic protein Bcl-XL,[3],reduced
same,levels of pro-apoptotic protein cleaved caspase-3,[3],increase
same,level of IL-1β,[4]; 20 μM,increased
same,level of IL-13,[4]; 20 μM,increased
same,level of IL-10,"[4]; 20 μM, multiplex ELISA (FIG. 12A)",increased
same,level of IL-10,[4]; V-Plex (FIG. 13A),unchanged
same,level of IL-8,"[4]; gingerenone A 20 μM, D+Q",increased
same,secreted level of CCL2 (MCP-1),"[4]; gingerenone A 20 μM, D+Q",reduced
same,secreted level of IL-6,"[4]; gingerenone A 20 μM, D+Q",reduced
same,secreted level of IP-10,"[4]; gingerenone A 20 μM, D+Q, V-plex",reduced
same,AUC,in vivo,1.25 ng·h/mL
same,serum concentration of beta-alanine,[6],did not increase
same,serum concentration of choline,[6],did not increase
COc1cc(CCC(C)=O)ccc1O [zingerone],senolytic activity (ability to selectively decrease cell viability of senescent cells),[1],only 6-shogaol and gingerenone A displayed senolytic activity
